Reference: ChEMBL document CHEMBL1134833, “Convergent synthesis of potent peptide inhibitors of the Grb2-SH2 domain by palladium catalyzed coupling of a terminal alkyne” (Bioorg Med Chem Lett, 2001)

molecular target: Growth factor receptor-bound protein 2 (Homo sapiens, UniProt P62993); experiment: Inhibitory concentration required against Src homology (SH2) domain of Growth factor receptor bound protein 2 by ELISA binding assay

Row | IC50 [µM] | Compound
1 | 0.0429 | CC(=O)N[C@@H](Cc1ccc(CP(=O)(O)O)cc1)C(=O)NC1(C(=O)N[C@@H](CC(N)=O)C(=O)NCCCc2cccc3ccccc23)CCCCC1
2 | 0.13 | COc1ccc2c(CCCNC(=O)[C@H](CC(N)=O)NC(=O)C3(NC(=O)[C@H](Cc4ccc(CP(=O)(O)O)cc4)NC(C)=O)CCCCC3)cccc2c1

Second part, the molecule before the results:

Row | Compound | IC50 [µM]
3 | CC(=O)N[C@@H](Cc1ccc(CP(=O)(O)O)cc1)C(=O)NC1(C(=O)N[C@@H](CC(N)=O)C(=O)NCCCc2c(O)ccc3ccccc23)CCCCC1 [CGP-78850] | 0.043
4 | CC(=O)N[C@@H](Cc1ccc(CP(=O)(O)O)cc1)C(=O)NC1(C(=O)N[C@@H](CC(N)=O)C(=O)NCCCc2ccc3cccc(O)c3c2)CCCCC1 | 0.0111
5 | CC(=O)N[C@@H](Cc1ccc(CP(=O)(O)O)cc1)C(=O)NC1(C(=O)N[C@@H](CC(N)=O)C(=O)NCCCc2cccc3cc(O)ccc23)CCCCC1 | 0.0427
6 | CC(=O)N[C@@H](Cc1ccc(CP(=O)(O)O)cc1)C(=O)NC1(C(=O)N[C@@H](CC(N)=O)C(=O)NCCCc2cccc3ccc(O)cc23)CCCCC1 | 0.0246
7 | COc1cc2cccc(CCCNC(=O)[C@H](CC(N)=O)NC(=O)C3(NC(=O)[C@H](Cc4ccc(CP(=O)(O)O)cc4)NC(C)=O)CCCCC3)c2cc1OC | 0.0844
